US12209142B2, “SARS-CoV-2 epitope-targeted peptide immunostimulants” (Institute for Systems Biology, priority 2020, dated 2025)
“Also recorded” adds a separate entry of the source. Bridges are numbered along the chain shown (N, C = ends). Where no end group is shown, it is not given here. [ ]: non-standard residue; d: D form. Lys(N3) = [N-]=[N+]=NCCCC[C@H](N)C(=O)O; Pra = C#CC[C@H](N)C(=O)O

How the values were obtained:
[1] = system: K. pneumoniae cells, BAA 1705 and BAA 2146; experiment: Whole-cell ELISA of anti-DNP recruitment to bacterial cell surfaces; format: cell-based, Klebsiella pneumoniae; conditions: AR-PCC plus anti-DNP; cy(LLFFF)-DNP 5 or 10 μM, cy(HNGPT)-DNP 50 and 100 μM
From the text: FIG. 12 is a plot of 450 nm absorbances obtained from a cell-based ELISA assay conducted on two strains of K. pneumoniae cells, BAA 1705 (black) and BAA 2146 (grey), that were either untreated or opsonized by EPIs (AR-PCCs) and/or antibodies. […] This establishes EPI-driven opsonization by cy(LLFFF)-DNP (SEQ ID NO:5). […] This indicates opsonization by cy(LLFFF)-DNP (SEQ ID NO:5) is specific and is driven by the ligand cy(LLFFF) (SEQ ID NO:5), rather than the Lys(DNP) moiety.
The protocol for detecting anti-DNP recruitment to bacterial cell surfaces is as follows. […] After washing, bacteria were incubated with HRP conjugated secondary antibody (Bio-Rad) at a dilution of 1:10,000 for 1 h at 37° C. Unbound antibody was washed off by using PBS-BSA and the cells were then developed by using TMB reagent. […] Anti-MrkA antibody was procured from Biorbyt (orb51318) and used at a concentration of 5 μg/mL, and K. pneumoniae antiserum was obtained from abcam (ab20947) and used at a concentration of 5 μg/mL.

[2] = system: K. pneumoniae cells (strain BAA 2146); experiment: Flow cytometry of AR-PCC-driven opsonization by anti-DNP antibodies; format: cell-based, Klebsiella pneumoniae
[3] = system: live or heat-killed MRSA cells; experiment: ELISA of PCC-driven SAv-HRP recruitment to MRSA cells; format: cell-based, Staphylococcus aureus; conditions: without or with 0.4 micrograms/mL tunicamycin
Procedure: FIG. 16A-16B are graphs showing PCC-driven recruitment of streptavidin-horseradish peroxidase (SAv-HRP) conjugate to live MRSA cells (FIG. 16A) or heat-killed MRSA cells (FIG. 16B) cultured under different antibiotic conditions via enzyme-linked Immunosorbent Assays (ELISAs). All tests were conducted by coating the antigen (MRSA cells) onto the wells of 96-well plates and then exposing the wells solutions containing biotinylated PCCs, then SAv-HRP, then HRP substrate followed by detection via absorbance at 450 nm. Absorbance values greater than the “no PCC” background indicate that several PCCs recruit SAv-HRP to either live cells (FIG. 16A) or heat-killed cells (FIG. 16B) cultured either without antibiotic (“−tunicamycin”, first three bars in each set) or with 0.4 micrograms/mL of tunicamycin (“+tunicamycin”, last three bars in each set), which reduces the expression of wall teichoic aids by MRSA. All measurements were conducted in triplicate and error bars reflect standard deviations. […]
The recruitment ability of selected PCCs was assessed by PCC-driven recruitment of streptavidin-horseradish peroxidase (SAv-HRP) conjugate to live MRSA cells (FIG. 16A) or heat-killed MRSA cells (FIG. 16B) cultured under different antibiotic conditions via enzyme-linked Immunosorbent Assays (ELISAs). […]

[4] = system: K. pneumoniae cells (strain BAA 1705); experiment: Gentamicin protection assay: phagocytosis and opsonophagocytic killing (OPK) by macrophages; format: cell-based, Klebsiella pneumoniae; conditions: macrophages harvested at 6 hrs
Procedure: FIGS. 7A and 7B show a gentamicin protection assay that evaluates EPI-driven phagocytosis and opsonophagocytic killing (OPK) of K. pneumoniae cells by murine bone-marrow-derived macrophages. FIG. 7A is a flow diagram depicting the assay used to evaluate EPI-driven opsonophagocytic killing (OPK) of K. pneumoniae cells. Briefly, K. pneumoniae cells (strain BAA 1705) opsonized by EPIs (AR-PCCs) and anti-DNP antibodies were incubated with macrophages for 1 or 24 h. Macrophages were lysed, and the lysate was plated to obtain bacterial colonies that were subsequently counted. FIG. 7B is a plot of colony counts for various samples subjected to the OPK assay. […] All EPIs (AR-PCCs) were used at a 5 μM concentration, measurements were conducted in triplicate, and error bars reflect standard deviations. cy(LLFFA) is SEQ ID NO:11.
It also tested whether DNP-conjugated EPIs could promote the opsonophagocytic killing (OPK) of K. pneumoniae by macrophages. This was tested by using an OPK assay. Briefly, K. pneumoniae cells were treated with EPI and then anti-DNP antibody before being exposed to macrophages for either 6 or 24 hours. During this incubation period, macrophages that recognize K. pneumoniae cells will phagocytose them, and phagocytosed bacteria will remain viable for up to 6 hours, but within 24 hours are rendered inviable by OPK. Thus, macrophages were isolated after 6 and 24 hours of incubation with K. pneumoniae, lysed them, and plated and grew the lysate, which yielded bacterial colonies that reflect the phagocytosis (at 6 hrs) or OPK (at 24 hrs) of bacteria.
Given that cy(LLFFF)-DNP (SEQ ID NO:5) recruits antibodies to K. pneumoniae surfaces, it was expected that K. pneumoniae opsonized in this manner would be more susceptible to phagocytosis by macrophages. AR-PCC-driven phagocytosis and OPK were quantified by a gentamicin protection assay, as depicted in FIG. 7A. For this assay, K. pneumoniae cells (strain BAA 1705) were treated with cy(LLFFF)-DNP (SEQ ID NO:5), opsonized by anti-DNP antibodies, and then incubated with murine bone-marrow-derived macrophages (BMDMs). BMDMs were subsequently exposed to a solution containing gentamicin, to which K. pneumoniae strain BAA 1705 is susceptible, to kill any extracellular bacteria. Phagocytosed bacteria remain viable inside BMDMs for at least 1 h, yet are rendered inviable after 24 h by OPK (FIG. 13). Macrophages harvested at 1 h and 24 h were lysed and plated to generate bacterial colonies, which were enumerated to quantify phagocytosis and OPK.
Opsonophagocytic killing (OPK) assays. Klebsiella pneumoniae BAA1705 was treated with DNP-PCCs followed by incubation with anti-DNP antibody, as described above in the “Cell-Based ELISAs” section. These opsonized bacteria were then used to infect BMDMs at a multiplicity of infection of 50 for 0.5 h at 37° C. Bacteria were then washed by using RPMI 1640 Media and BMDMs were left in cell culture medium containing gentamicin (100 μg/ml). After 1 h and 24 h BMDMs were washed to remove gentamicin and intracellular bacteria were harvested by lysing BMDMs in RPMI media containing 0.2% Triton X 100. Bacterial CFUs were enumerated by plating onto LB agar. Bacterial counts at 1 h indicated the degree of opsonization while those at 24 h served as a measure of microbicidal activity of macrophages. For these measurements, anti-MrkA antibody and K. pneumoniae antiserum were used at dilutions of 5 μg/mL each.

[5] = system: MrkA-expressing K. pneumoniae cells; experiment: Whole-cell ELISA of biotinylated PCC binding; conditions: biotinylated PCC at 5 μM
[6] = target: T1, full-length recombinant MrkA protein (Klebsiella pneumoniae, UniProt P12267); experiment: Sandwich ELISA of PCC binding to full-length MrkA
T1 construct: purchased MyBiosource MBS1248970
Procedure: The screen yielded 26 hits (Table 2) that were sequenced, scaled up, and tested for binding to full-length recombinant MrkA in solution by single-point sandwich Enzyme-linked immunoassays (ELISAs) (FIG. 8). HPraGly is present before X1 in each peptide and Az4 follows X5 in each peptide.
An alanine scan was performed to establish which residues of cy(LLFFF) (SEQ ID NO:5) contribute most to MrkA binding. In this assay, a sandwich ELISA is used to quantify the affinity of several cy(LLFFF) (SEQ ID NO:5) analogues, in which one residue is substituted with an alanine, towards full-length MrkA protein. The ELISA results in FIG. 4 show lower signal for every alanine-substituted cy(LLFFF) (SEQ ID NO:5) analogue compared to unmodified cy(LLFFF) (SEQ ID NO:5), establishing that the native compound has the highest affinity. […] Thus, these two C-terminal phenylalanine residues (FIG. 3A, arrows in inset) play critical roles in MrkA binding, and are targets for modifications to improve binding. Another important detail of these alanine scan results is a strong dependence of MrkA binding on the residue position, independent of residue type. For example, cy(LLAFF) (SEQ ID NO:9) and cy(LLFFA) (SEQ ID NO:11) have very different binding affinities, despite having the same phenylalanine-to-alanine substitution.
In vitro ELISA assays. ELISA assays for MrkA-binding and epitope selectivity were performed on clear NeutrAvidin Coated High Capacity Plates (ThermoFisher, 15507). The buffer used for all washes and to dissolve all compounds was TBST+0.1% BSA (TBS+0.05% Tween 20+0.1% BSA, pH 7.3) and, unless otherwise stated, steps were conducted at room temperature. Each wash involved a brief 20 s agitation, and all conjugation, blocking, and incubation steps were performed with gentle agitation over the entire stated time period. The general procedure for an ELISA assay was: wash 3×200 μL/well, conjugate with 2 μM of biotinylated compound for 2 h at room temperature (100 μL/well), wash 3×200 μL/well, blocked overnight in 5 wt % milk at 4° C., wash […] with wash buffer, incubate with titrated compound (e.g., MrkA or epitope) for 1 h, […], incubate with primary antibody […] for 1 h (100 μL/well), wash 3×200 μL/well, incubate with 1:2,000 anti-rabbit secondary antibody-horseradish peroxidase conjugate (Cell signaling Technologies, 7074S) for 1 h, 3×200 μL/well, develop with the Microwell Peroxidase Substrate System (2-C) (SeraCare, 5120-0047) using 100 μL/well for 1-40 minutes, and quench using 1 M H2SO4 (aq.) at 100 μL/well. For MrkA binding assays, biotinylated PCCs were conjugated to the well surface, recombinant MrkA with an N-terminal 6×His-SUMO-tag (MyBiosource, MBS1248970) was titrated at the desired concentration, and the primary antibody was His-tag antibody, pAb, Rabbit (Genscript, A00174) at a 1:5,000 dilution. For epitope selectivity assays, biotinylated SynEps were conjugated, DNP-conjugated AR-PCCs were titrated at a desired concentration, and the primary antibody was anti-DNP antibody produced in Rabbit (Sigma-Aldrich, D9656) at a 1:8,000 dilution. […] For binding tests in the context of mouse sera, the “titrated compound” described in the steps above was dispersed in a solution containing the desired concentration of mouse serum.

[7] = Isocratic point of PCCs (C18 prep-scale column elution); format: physicochemical
From the text: The efficacy of AR-PCCs in vivo will not only depend on target binding, but also pharmacokinetic (PK) properties, of which clearance pathway is an important parameter. […] Modifications include single- and double-residue substitutions, residue removal, and the addition of non-ionic PEG and charged poly-arginine tags (Ri, where i represents the number of arginine). Results of this optimization are shown in FIG. 4B, which plots IP versus the affinity of the compound to MrkA, relative to cy(LLFFF) (SEQ ID NO:5).
PCC compounds were purified on a Waters Autopurification system, which isolated compounds based on MS peaks corresponding to protonated [M+1H]^+ and [M+2H]^2+, and/or sodium adducts [M+Na]^+ and [M+2Na]^2+. The isocratic points of PCCs were determined based on the elution of the compound from a C18 prep-scale column. Synthetic epitopes were either purified on the Waters Autopurification System, or by semi-preparative HPLC and then using matrix-assisted laser desorption/ionization mass spectroscopy to identify fractions with the desired m/z ratio. The resulting peptides were lyophilized, the yield determined by mass difference or UV-visible absorbance, and resuspended at a concentration of up to 10 mM peptide in DMSO. Peptides were stored at −80° C. before thawing for each use.

T1 sequence (P12267 23-202): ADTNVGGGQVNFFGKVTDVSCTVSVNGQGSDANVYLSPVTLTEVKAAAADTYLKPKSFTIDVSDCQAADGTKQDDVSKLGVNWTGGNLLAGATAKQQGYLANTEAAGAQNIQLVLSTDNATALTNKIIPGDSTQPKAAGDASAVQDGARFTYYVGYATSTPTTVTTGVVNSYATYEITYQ

cy(HNGPT)-DNP: control AR-PCC, DNP-conjugated dummy ligand ([Lys(N3)]HNGPT[Pra]; triazole 1-7; also: DNP-conjugated) [reference compound]
450 nm absorbance, anti-DNP recruitment to cells [1]: Much smaller signals
fluorescence intensity of cells (predominantly) ([2]; AR-PCC at 50 μM plus Alexafluor 488 anti-DNP, strain BAA 2146): < 1.0×10^1

cy(kpdew): PCC to MRSA peptidoglycan, D-amino acids ([Lys(N3)][dK][dP][dD][dE][dW]X; bridge 1-7; not fully specified (residue 7, bridges); printed as cy(kpdew))
SAv-HRP recruitment to MRSA cells [3]: Standout recruiting peptides

cy(HNGPT): non-MrkA-binding dummy ligand ([Lys(N3)]HNGPT[Pra]; triazole 1-7) [reference compound]
fluorescence of cells (opsonization by anti-DNP) ([2]; cy(LLFFF)-DNP 1 or 5 μM, cy(HNGPT) control 50 μM, plus fluorescent anti-DNP): Slightly greater fluorescence
CFU at 6 hrs, DNP-conjugated EPI and anti-DNP antibody [4]: did not promote any phagocytosis
cell counts at 6 hrs, DNP-conjugated EPI without antibody [4]: ~35,000
whole-cell ELISA signal, K. pneumoniae BAA 1705 and BAA 2146 [5]: comparably lower signal; also recorded: no or minimal binding above baseline

cy(akkrp) ([Lys(N3)][dA][dK][dK][dR][dP]X; bridge 1-7; not fully specified (residue 7, bridges); printed as cy(akkrp))
SAv-HRP recruitment to MRSA cells [3]: Standout recruiting peptides

cy(LLFFF)+R6
binding of MrkA protein in mouse sera ([6]; MrkA protein at 250 nM in 10 and 100% mouse sera): binds MrkA protein in the context of sera; also recorded: bound MrkA protein in solutions of 10 and 100% mouse sera, albeit at lower levels versus 0% serum
stronger affinity to MrkA over cy(LLFFF) ([6]; ratio of ELISA signals to cy(LLFFF) reference on same plate): 22%
reduction / improvement in IP versus cy(LLFFF) [7]: ~35%
isocratic point (IP) ([7]; elution from C18 prep-scale column): ~40%
whole-cell ELISA signal, K. pneumoniae BAA 1705 and BAA 2146 [5]: similarly high selectivity towards MrkA-expressing cells
